pEC50: −log10 of the molar value. Like-named read-outs stand apart in the source and are kept apart here.
System: HCV pseudoparticles (genotype 1a HCV E1 and E2 envelope, H77C isolate)
Test: microbe, parasite or virus in culture
Type: cell-based
Details: Hepatitis C virus
[1] = Huh-7, 48 h, HCV pseudoparticles (genotype 1a, H77C) in Huh7 cells, average of duplicate, luciferase 2 days after infection
[2] = Huh-7, read-out: Activity (EC50 class), HCV pseudoparticles (genotype 1a, H77C) in Huh7 cells, EC50 expressed as class A/B
[3] = Huh-7, 48 h, HCV pseudoparticles, Huh7 cells, luciferase 2 days after infection, average of duplicates
[4] = Huh-7, 48 h, read-out: Activity (EC50 class), HCV pseudoparticles, Huh7 cells, luciferase 2 days after infection, average of duplicates
[5] = Huh-7, 48 h, read-out: Activity (EC50 class), HCV pseudoparticle infection of Huh7 cells, luciferase 2 days after infection, EC50 expressed as class A/B
[6] = Huh-7, 48 h, HCV pseudoparticle infection of Huh7 cells, luciferase 2 days after infection, average of duplicates

COC(=O)/C(CCNC(=O)C(=O)Nc1ccc(-n2nnnc2C)cc1)=N\C(=O)c1ccc(Nc2nc(NC3(c4ccc(Cl)cc4)CC3)nc(OCC(F)(F)F)n2)cc1 [Compound 3135]
pEC50 [1]: 8.43 | pEC50 [2]: 8.00 to 11.00

CN(C)CCOc1ccc(NC(=O)C(=O)NCC[C@H](NC(=O)c2ccc(Nc3nc(NC4(c5ccc(Cl)cc5)CC4)nc(OCC(F)(F)F)n3)cc2)C(=O)O)cn1 [Compound 3660]
pEC50 [3]: 8.78 | pEC50 [4]: 8.00 to 11.00

COC(=O)[C@H](CCNC(=O)C(=O)N[C@H]1C[C@H]2C[C@@H]([C@H]1C)C2(C)C)NC(=O)c1ccc(Nc2nc(NC3(c4ccc(Cl)cc4)CC3)nc(OCC(F)(F)F)n2)cc1 [Compound 1074]
pEC50 [5]: 8.00 to 11.00

O=C(NC/C(=N/C(=O)c1ccc(Nc2nc(NC3(c4ccc(Cl)cc4)CC3)nc(OCC(F)(F)F)n2)cc1)C(=O)O)C(=O)Nc1ccc(Cl)cc1 [Compound 3149]
pEC50 [2]: 8.00 to 11.00

CC(C)(CNC(=O)C(=O)NCc1ccc(Cl)cc1)CNC(=O)c1ccc(Nc2nc(NC3(c4ccc(Cl)cc4)CC3)nc(OCC(F)(F)F)n2)cc1 [Compound 3009]
pEC50 [2]: 8.00 to 11.00

COC(=O)[C@H](CCNC(=O)C(=O)Nc1ccncc1)NC(=O)c1ccc(Nc2nc(NC3(c4ccc(Cl)cc4)CC3)nc(OCC(F)(F)F)n2)cc1 [Compound 1236]
pEC50 [5]: 8.00 to 11.00

CCC1CCC(NC(=O)C(=O)NC[C@H](NC(=O)c2ccc(Nc3nc(NC4(c5ccc(Cl)cc5)CC4)nc(OCC(F)(F)F)n3)cc2)C(=O)OC)CC1 (stereo partly drawn) [Compound 1065]
pEC50 [6]: 9.23 | pEC50 [5]: 8.00 to 11.00

Cc1ccc(NC(=O)C(=O)NCC(C)(C)CNC(=O)c2ccc(Nc3nc(NC4(c5ccc(Cl)cc5)CC4)nc(OCC(F)(F)F)n3)cc2)cc1Cl [Compound 1541]
pEC50 [5]: 8.00 to 11.00

COC(=O)[C@H](CNC(=O)C(=O)Nc1ccc(-c2nncn2C)cc1)NC(=O)c1ccc(Nc2nc(NC3(c4ccc(Cl)cc4)CC3)nc(OCC(F)(F)F)n2)cc1 [Compound 3200]
pEC50 [2]: 8.00 to 11.00

COc1ccc(CNC(=O)C(=O)NC[C@H](NC(=O)c2ccc(Nc3nc(NC4(c5ccc(Cl)cc5)CC4)nc(OCC(F)(F)F)n3)cc2)C(=O)O)cc1 [Compound 1167]
pEC50 [6]: 8.88 | pEC50 [5]: 8.00 to 11.00

O=C(NCCn1cccn1)C(=O)NC[C@H](NC(=O)c1ccc(Nc2nc(NC3(c4ccc(Cl)cc4)CC3)nc(OCC(F)(F)F)n2)cc1)C(=O)O [Compound 1411]
pEC50 [5]: 8.00 to 11.00

Cc1ccc(NC(=O)C(=O)N(C)CCCN(C)C(=O)c2ccc(Nc3nc(NC4(c5ccc(Cl)cc5)CC4)nc(OCC(F)(F)F)n3)cc2)cc1 [Compound 3406]
pEC50 [1]: 8.72 | pEC50 [2]: 8.00 to 11.00

CC(C)(CNC(=O)c1ccc(Nc2nc(NC3(c4ccc(Cl)cc4)CC3)nc(OCC(F)(F)F)n2)cc1)NC(=O)C(=O)NC1CCCCC1 [Compound 3436]
pEC50 [1]: 10.09 | pEC50 [2]: 8.00 to 11.00

CC(C)(CNC(=O)C(=O)Nc1cccc(F)c1F)CNC(=O)c1ccc(Nc2nc(NC3(c4ccc(Cl)cc4)CC3)nc(OCC(F)(F)F)n2)cc1 [Compound 3261]
pEC50 [1]: 10.14 | pEC50 [2]: 8.00 to 11.00

COC(=O)[C@H](CNC(=O)C(=O)Nc1cccc(S(C)(=O)=O)c1)NC(=O)c1ccc(Nc2nc(NC3(c4ccc(Cl)cc4)CC3)nc(OCC(F)(F)F)n2)cc1 [Compound 3707]
pEC50 [4]: 8.00 to 11.00

CC(C)(CNC(=O)C(=O)Nc1cccc(-c2ccc(Cl)cc2)c1)CNC(=O)c1ccc(Nc2nc(NC3(c4ccc(Cl)cc4)CC3)nc(OCC(F)(F)F)n2)cc1 [Compound 1586]
pEC50 [5]: 8.00 to 11.00

Cc1ccc(NC(=O)C(=O)NCC(C)(C)CNC(=O)c2ccc(Nc3nc(NC4(c5ccc(Cl)cc5)CC4)nc(OCc4ccc(F)cc4)n3)cc2)cc1 [Compound 3845]
pEC50 [3]: 10.66 | pEC50 [4]: 8.00 to 11.00

O=C(NCC[C@H](NC(=O)c1ccc(Nc2nc(NC3(c4ccc(Cl)cc4)CC3)nc(OCC(F)(F)F)n2)cc1)C(=O)O)C(=O)NCC1CC1(Cl)Cl (stereo partly drawn) [Compound 1445]
pEC50 [5]: 8.00 to 11.00

CC(C)(CNC(=O)C(=O)Nc1ccc2c(c1)COC2=O)CNC(=O)c1ccc(Nc2nc(NC3(c4ccc(Cl)cc4)CC3)nc(OCC(F)(F)F)n2)cc1 [Compound 3359]
pEC50 [2]: 8.00 to 11.00

CC(C)(CNC(=O)C(=O)Nc1cccc(CC(=O)O)c1)CNC(=O)c1ccc(Nc2nc(NC3(c4ccc(Cl)cc4)CC3)nc(OCC(F)(F)F)n2)cc1 [Compound 1480]
pEC50 [5]: 8.00 to 11.00

COC(=O)[C@@H](CCNC(=O)C(=O)Nc1ccccc1Cl)NC(=O)c1ccc(Nc2nc(NC3(c4ccc(Cl)cc4)CC3)nc(OCC(F)(F)F)n2)cc1 [Compound 1535]
pEC50 [5]: 8.00 to 11.00

COC(=O)[C@@H](CCNC(=O)C(=O)NCC1CC1c1ccc(F)cc1)NC(=O)c1ccc(Nc2nc(NC3(c4ccc(Cl)cc4)CC3)nc(OCC(F)(F)F)n2)cc1 (stereo partly drawn) [Compound 1389]
pEC50 [5]: 8.00 to 11.00

CCc1ccc(COc2nc(Nc3ccc(C(=O)NCC(C)(C)CNC(=O)C(=O)Nc4ccc(C)cc4)cc3)nc(NC3(c4ccc(Cl)cc4)CC3)n2)cc1 [Compound 3842]
pEC50 [4]: 8.00 to 11.00

CC(C)(CNC(=O)C(N)=O)CNC(=O)c1ccc(Nc2nc(NC3(c4ccccc4Cl)CC3)nc(OCC(F)(F)F)n2)cc1 [Compound 3265]
pEC50 [2]: 6.00 to 8.00

Cc1csc(-c2cccc(NC(=O)C(=O)NC[C@H](NC(=O)c3ccc(Nc4nc(NC5(c6ccc(Cl)cc6)CC5)nc(OCC(F)(F)F)n4)cc3)C(=O)Cl)c2)n1 [Compound 3780]
pEC50 [4]: 8.00 to 11.00

O=C(NCC[C@H](NC(=O)c1ccc(Nc2nc(NC3(c4ccc(Cl)cc4)CC3)nc(OCC(F)(F)F)n2)cc1)C(=O)O)C(=O)Nc1ccccn1 [Compound 1279]
pEC50 [6]: 8.89 | pEC50 [5]: 8.00 to 11.00

CN(C)C(=O)C(=O)NC[C@H](NC(=O)c1ccc(Nc2nc(NC3(c4ccc(Cl)cc4)CC3)nc(OCC(F)(F)F)n2)cc1)C(=O)OCCOCCO [Compound 1023, (S)-2-(2-hydroxyethoxy)ethyl 2-(4-(4-(1-(4-chlorophenyl)cyclopropylamino)-6-(2,2,2-trifluoroethoxy)-1,3,5-triazin-2-ylamino)benzamido)-3-(2-(dimethylamino)-2-oxoacetamido)propanoate]
pEC50 [5]: 8.00 to 11.00

Cc1ccc2nc(NC(=O)C(=O)NCC(C)(C)CNC(=O)c3ccc(Nc4nc(NC5(c6ccc(Cl)cc6)CC5)nc(OCC(F)(F)F)n4)cc3)sc2c1 [Compound 3826]
pEC50 [4]: 8.00 to 11.00

CC(C)(CNC(=O)C(=O)Nc1nc2ccc(O)cc2s1)CNC(=O)c1ccc(Nc2nc(NC3(c4ccc(Cl)cc4)CC3)nc(OCC(F)(F)F)n2)cc1F [Compound 3676]
pEC50 [4]: 8.00 to 11.00

COC(=O)[C@H](CCNC(=O)C(=O)Nc1ccc(OC)cc1)NC(=O)c1ccc(Nc2nc(NC3(c4ccc(Cl)cc4)CC3)nc(OCC(F)(F)F)n2)cc1 [Compound 1232]
pEC50 [5]: 8.00 to 11.00

COC(=O)[C@H](CCNC(=O)C(=O)NC(c1ccc(OC)cc1)C1CC1)NC(=O)c1ccc(Nc2nc(NC3(c4ccc(Cl)cc4)CC3)nc(OCC(F)(F)F)n2)cc1 (stereo partly drawn) [Compound 1418]
pEC50 [6]: 9.55 | pEC50 [5]: 8.00 to 11.00

COC(=O)[C@H](CNC(=O)C(=O)NCCn1ccnc1C)NC(=O)c1ccc(Nc2nc(NC3(c4ccc(Cl)cc4)CC3)nc(OCC(F)(F)F)n2)cc1 [Compound 1301]
pEC50 [5]: 8.00 to 11.00

COc1cc2sc(NC(=O)C(=O)NCC(C)(C)CNC(=O)c3ccc(Nc4nc(NC5(c6ccc(Cl)cc6)CC5)nc(OCC(F)(F)F)n4)cc3F)nc2cc1Cl [Compound 3680]
pEC50 [4]: 8.00 to 11.00

Cc1cccc(NC(=O)C(=O)NCC(C)(C)CNC(=O)c2ccc(Nc3nc(NC4(c5ccc(Cl)cc5)CC4)nc(OCC(F)(F)F)n3)cc2)c1 [Compound 1597]
pEC50 [5]: 8.00 to 11.00

O=C(NCC[C@H](NC(=O)c1ccc(Nc2nc(NC3(c4ccc(Cl)cc4)CC3)nc(OCC(F)(F)F)n2)cc1)C(=O)O)C(=O)NC1Cc2ccccc2C1 [Compound 1335]
pEC50 [5]: 8.00 to 11.00

CC(CNC(=O)C(=O)Nc1cc(F)cc(F)c1)CNC(=O)c1ccc(Nc2nc(NC3(c4ccc(Cl)cc4)CC3)nc(OCC(F)(F)F)n2)cc1 (stereo not drawn) [Compound 3469]
pEC50 [1]: 10.46 | pEC50 [2]: 8.00 to 11.00

COC(=O)[C@H](CCNC(=O)C(=O)Nc1ccc(CN2CCCCC2)cc1)NC(=O)c1ccc(Nc2nc(NC3(c4ccc(Cl)cc4)CC3)nc(OCC(F)(F)F)n2)cc1 [Compound 3313]
pEC50 [2]: 8.00 to 11.00

CC(C)(C)OC(=O)N1CCCC(CNC(=O)C(=O)NCC[C@H](NC(=O)c2ccc(Nc3nc(NC4(c5ccc(Cl)cc5)CC4)nc(OCC(F)(F)F)n3)cc2)C(=O)O)C1 (stereo partly drawn) [Compound 1204]
pEC50 [5]: 8.00 to 11.00

Cc1nc(-c2cccc(NC(=O)C(=O)NCC[C@H](NC(=O)c3ccc(Nc4nc(NC5(c6ccc(Cl)cc6)CC5)nc(OCC(F)(F)F)n4)cc3)C(=O)O)c2)no1 [Compound 3654]
pEC50 [4]: 8.00 to 11.00

COCc1ccc(NC(=O)C(=O)NCC[C@H](NC(=O)c2ccc(Nc3nc(NC4(c5ccc(Cl)cc5)CC4)nc(OCC(F)(F)F)n3)cc2)C(=O)OC)cc1 [Compound 3322]
pEC50 [2]: 8.00 to 11.00

C[C@H](NC(=O)C(=O)NCC[C@H](NC(=O)c1ccc(Nc2nc(NC3(c4ccc(Cl)cc4)CC3)nc(OCC(F)(F)F)n2)cc1)C(=O)O)C1CC1 [Compound 1435]
pEC50 [6]: 9.96 | pEC50 [5]: 8.00 to 11.00

CCC1CCC(NC(=O)C(=O)NCC[C@H](NC(=O)c2ccc(Nc3nc(NC4(c5ccc(Cl)cc5)CC4)nc(OCC(F)(F)F)n3)cc2)C(=O)O)CC1 (stereo partly drawn) [Compound 1121]
pEC50 [5]: 8.00 to 11.00

COC(=O)[C@H](CNC(=O)C(=O)Nc1cccc(-n2ccnc2)c1)NC(=O)c1ccc(Nc2nc(NC3(c4ccc(Cl)cc4)CC3)nc(OCC(F)(F)F)n2)cc1 [Compound 3734]
pEC50 [4]: 8.00 to 11.00

Cc1ccc(NC(=O)C(=O)NCC(C)(C)CNC(=O)c2ccc(Nc3nc(NC4(c5ccc(Cl)cc5)CC4)nc(OCc4ccccc4F)n3)cc2)cc1 [Compound 3847]
pEC50 [3]: 10.57 | pEC50 [4]: 8.00 to 11.00
